Reference: paper PMC6120666 (The EMBO Journal, 2018)

Tests used:
[1] = tested on: THP1Blue cells, NOD1; assay: THP1Blue NF-κB-SEAP reporter assay, TriDAP (NOD1); assay type: cell-based; conditions: Homo sapiens; TriDAP 10 μg/ml; read-out: THP1-Blue NF-κB Inhibition IC50 (TriDAP)
[2] = tested on: C57Bl6/J mice; assay: Inhibition of MDP-elicited TNF release in vivo; conditions: 10 mg/kg i.p. 30 min before MDP 100 μg/mouse i.p., blood after 4 h
Experimental: Female 6‐ to 8‐week‐old C57Bl6/J mice (Jackson labs) were administered with the compounds i.p. 30 min prior to the i.p. injections of MDP as previously described (Nachbur et al, 2015). After 4 h, blood was collected by cardiac puncture. 100 μl of serum (diluted twofold) per animal was analyzed using anti‐mouse TNF ELISA (ThermoFisher Scientific).
All mouse experiments were approved by the Tufts University Committee on the Use and Care of Animals and performed according to accepted veterinary standards. Female 6-8-week-old C57Bl6/J mice (Jackson labs) were used for the experiments. Experiments were performed as previously described (Nachbur et al., 2015). Tested compounds were formulated in 6% Captisol formulation, pH 4.0 (100 μl/mouse, 10 mg/kg, Ligand Pharmaceuticals, San Diego, CA). MDP (Bachem, King of Prussia, PA) was dissolved in saline (100 μl/mouse, 100 μg/mouse). Mice were administered with the drugs i.p. 30 min prior to the i.p. injections of MDP. After 4 h, blood was collected by cardiac puncture.
100 μl of serum (diluted 2-fold) per animal was analyzed using anti-mouse TNF ELISA (ThermoFisher […]
Expression and purification of RIPK2 for X-ray crystallography […]

[3] = tested on: RAW264.7 cells (TLR4 activation by LPS); assay: TNF ELISA, LPS-stimulated RAW264.7 cells; assay type: cell-based, mouse; conditions: LPS 10 ng/ml; inhibitor even at 1 μM
Experimental: Figure EV3 Activity of select CSLP inhibitors in MDP and LPS‐stimulated RAW264.7 macrophages • A, B ELISA measurement of TNF release from RAW264.7 cells treated with MDP (10 μg/ml, 24 h) (A) or LPS (10 ng/ml) (B) and CSLP compounds as indicated. Values are expressed relative to the TNF release in cells treated with MDP without inhibitor (A) or as ng/ml TNF (B). Data information: Data represent the mean ± SEM of 2–3 independent experiments. Statistical significance in (B) is determined in relation to […] samples without inhibitor *P < 0.05, **P < 0.01, n.s., not significant. Two‐tailed unpaired Student's t‐test was used to determine statistical significance. […]
For HEKBlue assay, cells were seeded into clear 96 well plates at 7.5x10^3 cells/well and allowed to attach for 48 h. […] After 8-9 h, absorbance at 620 nm was measured using Victor3V plate reader (Perkin Elmer, Waltham, MA). Values of media-only wells were subtracted and %inhibition for each compound concentration relative to the DMSO/L18-MDP-treated controls were calculated.
Inhibition values + StDev were fitted by non-linear regression using Prism software (GraphPad Software, La Jolla, CA) to calculate IC50 values. […] After induction, 20 μl of media was mixed with 180 μl of QUANTI-Blue reagent (InvivoGen) and incubated at 37 °C for 3-4 h, followed by absorbance measurement at 620 nm. […]

[4] = tested on: C57Bl6/J mice; design: method as in Nachbur et al, 2015; conditions: ref Nachbur et al, 2015; cited from earlier work

SMILES	IC50 [1] [nM]	MDP-elicited serum TNF levels [2]	TNF release following LPS [3]	increase in serum levels of TNF in mice challenged with MDP [4]
CCCS(=O)(=O)Nc1cc(-c2cc(-c3ccc(N4CCNCC4)cc3)cnc2N)cc(F)c1OC [CSLP37]	20.8 ± 1.2	potently reduced	neither CSLP37 nor CSLP43 attenuated	–
Cc1ccc(-c2nn(C(C)(C)CNC(=O)c3ccncc3)c3ncnc(N)c23)cc1 [WEHI‐345, reference compound]	–	partial reduction	–	only partially inhibited
CCCS(=O)(=O)Nc1cc(-c2cc(-c3ccc(N4CCNCC4)cc3)cnc2N)cc(OC)c1OC [CSLP43]	1.43 ± 0.1	–	neither CSLP37 nor CSLP43 attenuated	–
